Results on three compounds are retold here after patent US7291353B2, “Anti-peptic ulcer activity of an extract of a flower of Woodfordia fruticosa” (Council of Scientific and Industrial Research, priority 2002, dated 2007).

For assay [1], the system named is frog gastric mucosa (histamine stimulated acid secretion). Nature of the assay: Frog Chamber Study: histamine-stimulated acid secretion of chambered frog gastric mucosa. The conditions noted are these: for concentration enough to block almost complete acid secretion: 0.1-0.2 mM histamine; for Comment (qualitative rank score): cimetidine and omeprazole (100%) = +8. Set-up: species or system Rana hexadactyla; key to Comment (qualitative rank score): the rank score for both cimetidine and omeprazole (considered as 100%) were given as +8.
Experimental: Frog Chamber Study: The in organ experiments using the whole frog stomach to assess the anti-HCl secreting potential of extracts and their fractions were carried out employing Frog Chamber Model (for detail about the logic of the experiment and the information to be generated.
Frog Chamber Study: The study is based on the principle of ‘No Acid No Ulcer’. […] In this in vitro study, frog stomach is mounted in a plastic tube (Using Chamber Study). Employing histamine as the ulcerogen (final common mediator of all the physiological secretagogues), the rate and extent of proton secretion are quantitatively assessed as a function of the amount of herbal preparation and duration of treatment.
The experimental approach, as standardized through a series of experiments with more than 200 plant extracts, has been to measure, over time, (i) basal acid secretion, (ii) histamine-stimulated acid secretion, (iii) extract-induced (two doses) acid secretion, followed by (iv) extract-withdrawn acid secretion. For a particular stomach, after the basal secretion level is known, histamine is inserted from the nutrient side to see maximum acid secreting potential. Thereafter, an extract is inserted (first lower dose and then higher dose) from the nutrient side in presence of continuous supply of histamine to mimic ulcerative situation, followed by withdrawal of the extract by washing the nutrient side with histamine-containing nutrient medium. This latter phase is expected to generate information regarding the efficacy of the extract, upon its withdrawal, towards inhibiting the continuously existing acid secreting phase.
Experiments are carried out with in vitro preparations of gastric mucosa mounted over one end of a plastic tube (mounted area is 1.76 cm^2) with the mucosal surface facing out. The mounted tissue is placed vertically inside a 25-ml container. The nutrient solution is regular Frog Ringer solution and the luminal side (secretory side) is bathed in an unbuffered NaCl solution. The volumes of nutrient and mucosal solutions are adjusted in a way so as to be able to maintain constant hydrostatic pressure in the chamber throughout the duration of the experiment. Both solutions are slowly and continuously bubbled with O2 during the entire duration of the experiment. The mucosal solution is slowly and continuously stirred with a magnetic stirrer and collected at 15-min intervals in thoroughly washed clean vials.

The subject of assay [2] is Helicobacter pylori virulent strain 121 A. Put plainly: Anti H. pylori Activity, Disc Diffusion Sensitivity Test, strain 121A. The class given is cell-based. The note with it: 0.5 mg/disc; one range stated for both the strains (121A). (In general: In agar diffusion tests the substance spreads into inoculated agar from a disc or well.)
Assay [3] concerns Helicobacter pylori avirulent strain 80A. Put plainly: Anti H. pylori Activity, Disc Diffusion Sensitivity Test, strain 80A. The note with it: 0.5 mg/disc; one range stated for both the strains (80A). In kind it is cell-based.
A further assay has as its target T1, Gastric H^+, K^+-ATPase (Sus scrofa, UniProt P19156).
T1 construct: These membranes are primarily enriched in tubulovescicular and apical membranes; from tissue; host or cells: pig stomach (gastric mucosa), tubulovesicular and apical membranes
Nature of the assay: Anti Gastric Proton Pump Activity Study. The conditions noted are these: dose range of 0.3-3.0 mg/assay. In kind it is biochemical, pig. The text has this:
The applicant have selected one whole animal model—Cold Restraint Stress Ulcer in Rat (in vivo) to assess ulcer protection capacity of the extracts [Senay E. C. and Levine R. J., Proc Soc. Exp. Biol. Med. 124, 1221 (1967)], one isolated stomach model—Chambered Frog Gastric Mucosa (in organ) to assess anti HCl secretion potential [Durbin R. P. and Kircher A. B., Biochem. Biophys. Acta, 321, 553 (1973); Ray, T. K. and Tague L. R., Biochem. Pharmacol. 29, 2755 (1980); Ray et al., Proc. Natl. Acad. Sci. (USA) 79, 1448 (1982)], gastric proton pump inhibition model using pig gastric H^+, K^+-ATPase-rich apical and tubulovesicular membranes (in vitro) to examine enzyme inhibition [Bandopadhyay, S. Das, P. K., Wright, M. V., Nandi, J., Bhattacharyya, D. and Ray, T. K., J. Biol. Chem. 262, 5664 (1987)], and anti Helicobacter pylori activity assessment by Disc Diffusion Sensitivity Assay [Glupczynski, Y. In: Helicobacter pylori: techniques for clinical diagnosis & basic research, (Eds. Adrian Lee & Francis Megraud), W. B. Saunders Company Ltd., 1996, pp. 17-32].
3. […] K^+-stimulated activity, referred to as H^+, K^+-ATPase, was calculated as the difference between the activities obtained in presence of Mg^2+ plus K^+ and the basal activity (Mg^2+-ATPase) in presence of MG^2+ alone.

T1 sequence (P19156 2-1034 limits assumed): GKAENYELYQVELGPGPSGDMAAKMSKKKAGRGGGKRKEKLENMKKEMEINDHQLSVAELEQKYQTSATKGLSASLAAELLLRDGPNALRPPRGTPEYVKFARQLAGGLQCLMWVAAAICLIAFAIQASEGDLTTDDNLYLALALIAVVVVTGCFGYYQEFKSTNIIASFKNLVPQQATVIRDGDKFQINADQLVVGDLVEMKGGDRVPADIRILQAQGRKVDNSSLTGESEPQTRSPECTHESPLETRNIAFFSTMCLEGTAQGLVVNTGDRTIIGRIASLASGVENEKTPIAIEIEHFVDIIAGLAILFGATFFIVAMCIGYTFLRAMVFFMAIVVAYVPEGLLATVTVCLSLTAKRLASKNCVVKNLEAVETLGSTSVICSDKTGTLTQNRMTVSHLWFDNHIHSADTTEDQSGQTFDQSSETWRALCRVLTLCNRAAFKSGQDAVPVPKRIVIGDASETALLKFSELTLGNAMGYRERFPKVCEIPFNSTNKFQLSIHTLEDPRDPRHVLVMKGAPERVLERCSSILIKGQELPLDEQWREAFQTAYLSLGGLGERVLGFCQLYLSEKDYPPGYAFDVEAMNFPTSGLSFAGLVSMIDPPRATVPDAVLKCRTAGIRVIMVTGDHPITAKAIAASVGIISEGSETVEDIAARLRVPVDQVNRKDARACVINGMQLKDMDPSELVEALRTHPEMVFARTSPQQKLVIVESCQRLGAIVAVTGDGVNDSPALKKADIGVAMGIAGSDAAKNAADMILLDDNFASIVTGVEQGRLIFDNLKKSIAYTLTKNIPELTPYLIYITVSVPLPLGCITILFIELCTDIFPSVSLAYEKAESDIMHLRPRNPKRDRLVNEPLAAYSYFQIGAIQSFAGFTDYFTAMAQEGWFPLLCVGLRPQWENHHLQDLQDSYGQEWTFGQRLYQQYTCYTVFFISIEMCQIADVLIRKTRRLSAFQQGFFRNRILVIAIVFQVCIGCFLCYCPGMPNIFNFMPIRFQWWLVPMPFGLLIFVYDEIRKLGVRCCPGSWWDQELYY
T1 sequence (P18434 whole entry partner): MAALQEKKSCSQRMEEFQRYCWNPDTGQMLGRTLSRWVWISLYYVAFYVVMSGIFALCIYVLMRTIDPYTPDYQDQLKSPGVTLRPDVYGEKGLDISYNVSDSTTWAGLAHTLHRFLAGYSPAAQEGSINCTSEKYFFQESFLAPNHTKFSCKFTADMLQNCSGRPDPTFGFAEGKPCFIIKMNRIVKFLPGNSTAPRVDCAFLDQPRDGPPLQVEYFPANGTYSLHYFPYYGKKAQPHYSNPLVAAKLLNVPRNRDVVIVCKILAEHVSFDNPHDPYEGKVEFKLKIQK

For the compound `CN/C(=N/CCSCc1nc[nH]c1C)NC#N` [cimetidine], the “concentration enough to block almost complete acid secretion” value in assay [1] (added from nutrient side) was 0.1 to 0.2 mM. The “Comment (qualitative rank score)” value in assay [1] was “+8”.

For the compound `CC[C@H]1OC(=O)[C@H](C)[C@@H](O[C@H]2C[C@@](C)(OC)[C@@H](O)[C@H](C)O2)[C@H](C)[C@@H](O[C@@H]2O[C@H](C)C[C@H](N(C)C)[C@H]2O)[C@](C)(OC)C[C@@H](C)C(=O)[C@H](C)[C@@H](O)[C@]1(C)O` [clarithromycin], the inhibition zone diameter in assay [2] and in assay [3] was 2.3-2.7 cm in each case.

`COc1ccc2[nH]c([S+]([O-])Cc3ncc(C)c(OC)c3C)nc2c1` (stereo not shown) [omeprazole]: the “% inhibition of H^+, K^+-ATPase” value at Gastric H^+, K^+-ATPase was 50-100%. Further, the “concentration enough to block almost complete acid secretion” value in assay [1] (added from secretory side) was 1 to 10 mM. Besides, the “Comment (qualitative rank score)” value in assay [1] is recorded as “+8”.
